SMILES strings stand for the structures.

Assay [1] can be described thus: Inhibition of NAT in Wistar rat synaptosomes assessed as [3H]-NA reuptake by liquid scintillation counting. Format: subcellular.
In assay [2] the target is Sodium-dependent serotonin transporter (Rattus norvegicus, UniProt P31652). Put plainly: Inhibition of 5-HT in Wistar rat synaptosomes assessed as [3H]-5-HT reuptake by liquid scintillation counting. Format: subcellular.
For assay [3], the target named is Sodium-dependent dopamine transporter (Rattus norvegicus, UniProt P23977). Put plainly: Inhibition of DAT in Wistar rat synaptosomes assessed as [3H]-DA reuptake by liquid scintillation counting. Format: subcellular.
Sequence of Sodium-dependent dopamine transporter (Rattus norvegicus, UniProt P23977) (P23977 whole entry): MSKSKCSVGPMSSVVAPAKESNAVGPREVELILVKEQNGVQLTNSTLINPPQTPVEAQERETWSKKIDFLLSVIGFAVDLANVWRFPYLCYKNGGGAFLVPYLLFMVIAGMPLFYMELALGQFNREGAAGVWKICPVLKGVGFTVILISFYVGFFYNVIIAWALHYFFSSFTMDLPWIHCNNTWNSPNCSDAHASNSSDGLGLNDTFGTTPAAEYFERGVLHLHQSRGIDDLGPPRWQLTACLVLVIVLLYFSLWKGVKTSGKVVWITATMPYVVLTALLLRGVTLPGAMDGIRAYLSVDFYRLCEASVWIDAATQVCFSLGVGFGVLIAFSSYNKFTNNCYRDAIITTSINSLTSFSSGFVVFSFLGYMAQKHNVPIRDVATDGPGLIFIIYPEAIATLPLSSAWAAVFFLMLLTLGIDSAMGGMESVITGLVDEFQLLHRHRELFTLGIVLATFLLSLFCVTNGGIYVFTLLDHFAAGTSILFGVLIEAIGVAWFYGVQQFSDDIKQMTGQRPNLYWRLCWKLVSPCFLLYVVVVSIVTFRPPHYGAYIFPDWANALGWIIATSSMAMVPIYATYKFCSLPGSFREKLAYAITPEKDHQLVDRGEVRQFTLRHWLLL
For assay [4], the target named is Voltage-gated inwardly rectifying potassium channel KCNH2 (Homo sapiens, UniProt Q12809). Put plainly: Inhibition of human ERG channel tail current.
Sequence of Voltage-gated inwardly rectifying potassium channel KCNH2 (Q12809 whole entry): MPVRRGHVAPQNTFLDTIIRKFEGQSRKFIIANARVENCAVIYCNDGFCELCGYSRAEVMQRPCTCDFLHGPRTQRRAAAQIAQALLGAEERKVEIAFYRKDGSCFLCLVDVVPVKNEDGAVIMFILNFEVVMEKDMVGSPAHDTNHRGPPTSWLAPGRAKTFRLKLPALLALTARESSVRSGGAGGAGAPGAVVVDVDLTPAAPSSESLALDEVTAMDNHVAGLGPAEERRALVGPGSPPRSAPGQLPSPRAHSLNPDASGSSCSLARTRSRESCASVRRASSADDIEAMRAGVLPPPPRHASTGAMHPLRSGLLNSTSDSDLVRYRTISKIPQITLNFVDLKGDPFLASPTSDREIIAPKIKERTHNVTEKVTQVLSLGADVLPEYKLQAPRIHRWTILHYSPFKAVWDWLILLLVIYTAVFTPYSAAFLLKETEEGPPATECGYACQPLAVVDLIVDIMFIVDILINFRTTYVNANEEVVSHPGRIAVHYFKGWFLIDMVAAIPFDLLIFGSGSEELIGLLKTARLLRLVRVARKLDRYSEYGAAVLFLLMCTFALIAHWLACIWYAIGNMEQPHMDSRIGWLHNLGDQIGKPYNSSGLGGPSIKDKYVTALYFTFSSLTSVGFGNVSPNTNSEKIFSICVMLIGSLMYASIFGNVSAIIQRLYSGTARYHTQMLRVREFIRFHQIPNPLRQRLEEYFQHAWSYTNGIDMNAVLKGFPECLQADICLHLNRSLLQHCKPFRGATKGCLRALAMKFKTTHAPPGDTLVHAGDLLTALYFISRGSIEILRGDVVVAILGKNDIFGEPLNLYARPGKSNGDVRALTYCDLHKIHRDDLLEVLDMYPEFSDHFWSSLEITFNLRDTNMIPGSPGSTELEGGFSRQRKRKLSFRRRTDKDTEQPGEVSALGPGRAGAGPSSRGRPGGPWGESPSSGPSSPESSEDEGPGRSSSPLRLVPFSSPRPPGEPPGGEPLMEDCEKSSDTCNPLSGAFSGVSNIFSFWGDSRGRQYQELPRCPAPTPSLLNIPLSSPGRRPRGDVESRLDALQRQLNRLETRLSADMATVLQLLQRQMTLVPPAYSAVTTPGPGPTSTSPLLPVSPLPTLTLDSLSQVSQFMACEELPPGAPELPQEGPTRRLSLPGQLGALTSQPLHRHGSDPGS
The target in assay [5] is Sodium-dependent dopamine transporter (Homo sapiens, UniProt Q01959). Put plainly: Inhibition of recombinant human DA transporter assessed as reduction in [3H]-DA reuptake.
Sequence of Sodium-dependent dopamine transporter (Homo sapiens, UniProt Q01959) (Q01959 whole entry): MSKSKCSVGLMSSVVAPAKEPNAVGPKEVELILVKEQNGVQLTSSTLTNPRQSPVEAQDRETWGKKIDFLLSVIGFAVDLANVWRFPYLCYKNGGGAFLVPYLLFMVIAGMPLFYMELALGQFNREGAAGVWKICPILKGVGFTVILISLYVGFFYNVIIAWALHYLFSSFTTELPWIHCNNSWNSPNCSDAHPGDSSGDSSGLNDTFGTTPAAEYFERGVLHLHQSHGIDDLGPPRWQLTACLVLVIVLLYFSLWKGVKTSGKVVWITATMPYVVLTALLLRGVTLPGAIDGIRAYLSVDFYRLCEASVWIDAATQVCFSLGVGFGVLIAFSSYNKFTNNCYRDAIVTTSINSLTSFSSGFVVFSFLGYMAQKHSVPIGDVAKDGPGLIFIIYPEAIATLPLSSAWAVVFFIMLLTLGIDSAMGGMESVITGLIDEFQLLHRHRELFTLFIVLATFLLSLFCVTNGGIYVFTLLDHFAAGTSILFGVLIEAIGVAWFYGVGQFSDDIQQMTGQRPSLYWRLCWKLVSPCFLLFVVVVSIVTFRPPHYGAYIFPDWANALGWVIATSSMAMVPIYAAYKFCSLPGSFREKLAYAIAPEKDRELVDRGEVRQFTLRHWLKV
The nature of assay [6]: Inhibition of recombinant human sPLA2 after 30 mins microtiter plate assay.
Assay [7] deals with UT7. Put plainly: Induction of cell proliferation in human UT7 cells at 10 uM after 42 hrs by thymidine incorporation assay. Format: functional. A general note: Uptake of a labelled nucleoside into DNA is a usual measure of proliferation.
Assay [8] concerns the target Sodium-dependent serotonin transporter (Homo sapiens, UniProt P31645). Put plainly: Inhibition of recombinant human 5-HT transporter expressed in HEK293 cells assessed as reduction in [3H]-5-HT reuptake. Format: cell-based.
Assay [9] concerns the target Sodium-dependent noradrenaline transporter (Homo sapiens, UniProt P23975). Put plainly: Inhibition of recombinant human norepinephrine transporter assessed as reduction in [3H]-NA reuptake.
Assay [10] in a line: Inhibition of human sPLA2 expressed in Escherichia coli assessed as release of [14C]oleate.

Sequence of Sodium-dependent serotonin transporter (Rattus norvegicus, UniProt P31652) (P31652 whole entry): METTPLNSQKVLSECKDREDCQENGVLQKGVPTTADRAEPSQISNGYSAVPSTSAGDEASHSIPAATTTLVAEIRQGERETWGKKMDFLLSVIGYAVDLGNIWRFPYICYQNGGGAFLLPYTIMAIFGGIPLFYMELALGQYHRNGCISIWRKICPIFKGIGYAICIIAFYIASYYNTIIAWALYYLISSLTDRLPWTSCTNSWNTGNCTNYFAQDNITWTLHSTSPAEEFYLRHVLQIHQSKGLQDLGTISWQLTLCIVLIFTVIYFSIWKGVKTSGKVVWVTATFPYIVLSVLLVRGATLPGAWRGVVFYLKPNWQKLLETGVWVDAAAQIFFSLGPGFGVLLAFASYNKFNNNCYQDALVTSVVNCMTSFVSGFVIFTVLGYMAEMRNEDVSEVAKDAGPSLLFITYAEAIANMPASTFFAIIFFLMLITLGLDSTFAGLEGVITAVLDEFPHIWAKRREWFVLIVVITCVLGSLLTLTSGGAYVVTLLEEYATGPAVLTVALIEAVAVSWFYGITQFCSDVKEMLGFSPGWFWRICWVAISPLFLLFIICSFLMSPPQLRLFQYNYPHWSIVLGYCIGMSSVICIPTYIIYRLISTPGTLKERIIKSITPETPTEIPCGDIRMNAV
Sequence of Sodium-dependent serotonin transporter (Homo sapiens, UniProt P31645) (P31645 whole entry): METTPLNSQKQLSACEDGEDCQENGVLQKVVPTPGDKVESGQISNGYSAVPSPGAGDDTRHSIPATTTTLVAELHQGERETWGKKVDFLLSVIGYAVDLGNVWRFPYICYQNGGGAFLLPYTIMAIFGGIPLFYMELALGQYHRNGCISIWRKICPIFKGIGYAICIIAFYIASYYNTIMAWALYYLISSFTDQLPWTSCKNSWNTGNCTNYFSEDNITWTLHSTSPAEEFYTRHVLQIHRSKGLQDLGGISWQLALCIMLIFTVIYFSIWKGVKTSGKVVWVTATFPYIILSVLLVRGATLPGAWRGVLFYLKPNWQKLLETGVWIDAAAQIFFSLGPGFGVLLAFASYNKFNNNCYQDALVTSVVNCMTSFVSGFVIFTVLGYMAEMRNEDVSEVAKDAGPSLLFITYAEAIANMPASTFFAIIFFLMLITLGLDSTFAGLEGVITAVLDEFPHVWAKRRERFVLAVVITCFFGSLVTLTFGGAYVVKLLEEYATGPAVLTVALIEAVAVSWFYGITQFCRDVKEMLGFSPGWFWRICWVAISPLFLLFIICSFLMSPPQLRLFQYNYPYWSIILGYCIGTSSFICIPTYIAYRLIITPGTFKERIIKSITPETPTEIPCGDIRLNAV
Sequence of Sodium-dependent noradrenaline transporter (P23975 whole entry): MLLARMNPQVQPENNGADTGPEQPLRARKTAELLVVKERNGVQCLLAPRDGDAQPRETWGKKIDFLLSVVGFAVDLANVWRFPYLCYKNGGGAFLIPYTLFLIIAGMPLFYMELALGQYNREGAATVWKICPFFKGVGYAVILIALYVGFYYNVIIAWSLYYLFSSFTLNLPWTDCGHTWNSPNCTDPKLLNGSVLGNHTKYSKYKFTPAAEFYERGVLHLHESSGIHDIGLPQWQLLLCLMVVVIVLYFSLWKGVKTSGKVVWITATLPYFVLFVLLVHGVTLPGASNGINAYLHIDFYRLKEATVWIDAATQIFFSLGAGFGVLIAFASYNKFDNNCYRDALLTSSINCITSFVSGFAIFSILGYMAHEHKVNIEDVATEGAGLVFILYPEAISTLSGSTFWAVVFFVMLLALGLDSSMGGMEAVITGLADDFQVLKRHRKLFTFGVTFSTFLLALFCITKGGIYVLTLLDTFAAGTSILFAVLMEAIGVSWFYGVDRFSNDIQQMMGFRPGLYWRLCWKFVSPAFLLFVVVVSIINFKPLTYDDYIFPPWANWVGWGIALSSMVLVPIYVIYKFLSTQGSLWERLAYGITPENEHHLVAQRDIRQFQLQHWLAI

The term IC50 denotes the concentration that inhibits the measured activity by half. Consider `COc1cc2ccc(OC3CC4CCC(C3)N4C)cc2oc1=O` (configuration not stated), for which the IC50 in assay [1] was 0.00048 µM; in assay [2], 0.01 µM; in [3] it was 0.0099 µM.
In turn, `CC1=NN(c2ccc(C)c(C)c2)C(=O)/C1=N\Nc1cccc(-c2cccc(C(=O)O)c2)c1O` [ELTROMBOPAG] had an IC50 in assay [4] of 0.69 µM.
For `CN(C)CC1(c2ccc(Cl)c(Cl)c2)CCCC(O)C1` (configuration not stated), the concentration for half-maximal inhibition (IC50) in assay [5] came out at 0.013 µM.
With `CCc1c(C(=O)C(N)=O)c2c(OCC(=O)O)cccc2n1Cc1ccccc1` [VARESPLADIB], the half-inhibitory concentration (IC50) in assay [6] came to 0.009 µM.
In turn, `COC(=O)[C@H](CCCCNC(=O)CN(CC(=O)CNc1ccc(OC)cc1)C(=O)C1CCCC(C(=O)N(CC(=O)NCCCC[C@H](NC(=O)OCc2ccccc2)C(=O)OC)CC(=O)NCc2ccc(OC)cc2)C1)NC(=O)OCc1ccccc1` (some centres not stated) displayed an Activity in assay [7] of 33%.
For the molecule `CN1C2CCC1CC(Oc1ccc3cc(-c4ccoc4)c(=O)oc3c1)C2` (configuration not stated), the results for the IC50 in assay [1], in [2] and in [3] were 0.0038 µM, 0.0029 µM and 0.07 µM, respectively.
As to `CNC[C@]1(c2ccc3ccccc3c2)CC[C@@](C)(O)CC1`, the figures for the IC50 in assay [8] and in [5] were 0.011 µM and 0.04 µM, respectively.
On to `CN1C2CCC1CC(c1ccc3ccccc3c1)C2` (configuration not stated), for which the half-maximal inhibitory concentration (IC50) in assay [1] is 0.018 µM; in [2], 0.00023 µM; in assay [3], 0.034 µM.
Regarding `Cc1ccc(C2CC3CCC(C2)N3C)cc1Br` (configuration not stated), the IC50 in [1] is 0.015 µM; in [2], 0.0014 µM; in [3], 0.013 µM.
For the molecule `CC(C)C(C)[C@]1(c2ccc3ccccc3c2)CC[C@](C)(O)CC1` (some centres not stated), the IC50 amounted to 0.018 µM in assay [8], 0.033 µM in [9] and 0.021 µM in assay [5].
Turning to `O=C(O)CC[C@@H](CSc1ccc(Cc2ccccc2)cc1)NC(=O)CCCCCCc1ccccc1`, in assay [10], the IC50 is 0.021 µM.

These data come from ChEMBL document CHEMBL3769327, “Emerging targets and new small molecule therapies in Parkinson's disease treatment” (Bioorg Med Chem, 2016).
